# Assay results reported in US5723468A, “6-membered ring fused imidazoles as muscarinic agents” (priority 1996, dated 1998).
# Assays:
# [1] = biological target: T1, M1 acetylcholine receptors (ml receptors in CHO cells) (Homo sapiens, UniProt P11229); test: stimulation of phosphoinositide (PI) hydrolysis in transfected CHO cells; assay type: cell-based; conditions: 1 h, read-out: % PI Hydrolysis ml receptors in CHO cells 30 × Ki (μM), carb = 100%
# T1 sequence (P11229 1-460): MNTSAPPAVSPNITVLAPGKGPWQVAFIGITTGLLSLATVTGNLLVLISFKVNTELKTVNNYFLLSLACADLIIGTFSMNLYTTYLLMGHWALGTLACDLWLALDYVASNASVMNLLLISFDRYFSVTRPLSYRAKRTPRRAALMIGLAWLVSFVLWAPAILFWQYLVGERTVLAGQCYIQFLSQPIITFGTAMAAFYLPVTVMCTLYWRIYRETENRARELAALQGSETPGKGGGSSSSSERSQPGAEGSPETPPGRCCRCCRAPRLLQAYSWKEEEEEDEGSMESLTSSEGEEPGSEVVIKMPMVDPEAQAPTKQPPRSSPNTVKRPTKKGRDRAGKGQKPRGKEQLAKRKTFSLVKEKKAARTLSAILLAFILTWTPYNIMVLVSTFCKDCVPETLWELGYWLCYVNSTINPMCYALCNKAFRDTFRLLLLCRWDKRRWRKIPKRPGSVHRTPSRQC
# [2] = system: mild to moderate Alzheimer's Disease; conditions: cited from earlier work; for improvement in memory: patients with mild to moderate Alzheimer's Disease
Compound,Emax [1],improvement in memory [2],adverse side effects ([2]; especially at the higher doses where it is most effective)
"Cn1cnc2c(O[C@@H]3CN4CC[C@H]3C4)nccc21 (relative stereo) [Example 1, endo-4-(1-Aza-bicyclo[2.2.1]hept-3-yloxy)-1-methyl-1H-imidazol[4,5-c]pyridine]",25%,,
"Cn1cnc2c(O[C@@H]3CN4CC[C@H]3C4)nccc21 (single isomer, unassigned) [Example 3, (-)-endo-4-(1-Aza-bicyclo[2.2.1]hept-3-yloxy)-1methyl-1H-imidazol[4,5-c]pyridine]",20.6%,,
"c1ccc(Cn2cnc3c(OC4CN5CCC4CC5)nccc32)cc1 (single isomer, unassigned; (-)) [Example 7, (-)-3-(1-Benzyl-1H-imidazol[4,5-c]pyridin-4-yloxy)-1-aza-bicyclo[2,2,2]octane]",18.4%,,
"c1ccc(Cn2cnc3c(OC4CN5CCC4CC5)nccc32)cc1 (stereo not shown) [Example 5, 3-(1-Benzyl-1H-imidazo[4,5-c]pyridin-4-yloxy)-1-aza-bicyclo[2,2,2]octane]",6.8%,,
COC(=O)C1=CCCN(C)C1 [arecoline],,demonstrated memory improvement in patients with mild to moderate Alzheimer's Disease,
Nc1c2c(nc3ccccc13)CCCC2 [tacrine],,improvement in memory can be shown in patients with mild to moderate Alzheimer's Disease,adverse side effects especially at the higher doses
